Reference: US20240366560A1, “SMALL MOLECULE TREATMENT OF FATTY LIVER DISEASE AND HCC” (ScandiEdge Therapeutics AB, priority 2021, published 2024)

Legend:
Pklr = assay: In vivo efficacy study in rats: hepatic Pklr expression; details: rat animal study
Protocol: In vivo efficacy studies. […] The HSD group were treated with vehicle solution only.

Sprague Dawley male rats [1] = assay: In vivo biosafety study: immunohistochemical 8-OH-dG examination of liver; design: species or system rat; details: 30 mg/kg oral, 7 days, CHOW
Protocol: (§1) In vivo biosafety studies. Healthy Sprague Dawley male rats (12 weeks old, 250-280 g) were obtained from Atatürk University Experimental Research Center (ATADEM, Erzurum Turkey) and housed under standard environmental conditions (temperature 20° C.-25° C., humidity 50±20% and 12-hour light/dark diurnal cycle). Food and water were available ad libitum. Rats were randomly separated into one control group and two experimental groups (30 mg/kg/day BX-912 or JNK-IN-5A, n=5). BX-912 and JNK-IN-5A were dissolved in DMSO and orally administrated using oral gavage for 7 days. The control group were received the same amount of vehicle solution only.
(§2) After 7 days, rats were anaesthetized, and blood samples were collected from the abdominal aorta for biochemical and haematological analysis. The plasma was separated and stored at −80° C. for further analysis. Major organs such as heart, kidney, liver, muscle, adipose, intestine (duodenum, ileum, jejunum), pancreas, colon, and stomach were collected from all the animals for further analysis. Selected organs were fixed in 10% neutral buffered formalin for histopathological examination.
Immunohistochemical examination. After deparaffinization, the slides were immersed in antigen retrieval solution (pH 6.0) and heated in microwave for 15 min to unmask the antigens. The sections were then dipped in 3% H2O2 for 10 min to block endogenous peroxidase activity. […]

HSD-fed rats = assay: In vivo efficacy study in HSD-fed steatosis rats: immunohistochemical 8-OH-dG examination of liver; design: species or system rat; details: 30 mg/kg, 7 days, HSD 3w group: strong, FIG. 3
Text: In vivo efficacy studies. After 1-week acclimation period, rats were randomly separated into two groups: control group (n=5) and high sucrose group (n=20). The control group was fed with a standard diet while the others consumed high sucrose diet (HSD). Sucrose was purchased from Sigma Chemical Co. (St Louis, MO, USA) and supplied at the dose of 10% in the drink water for two weeks. After 2 weeks, five rats in the HSD group were randomly sacrificed for conformation of NAFLD model. Then, the remaining rats in the HSD group were separated into three sub-groups (n=5): HSD group, HSD plus BX-912 group and HSD plus JNK-IN-5A group. BX-912 and JNK-IN-5A were dissolved in DMSO and were orally administrated using oral gavage for one week (30 mg/kg/day). The HSD group were treated with vehicle solution only. At the end of the experiment, rats were sacrificed after being anesthetized. Blood samples were collected from the abdominal aorta and centrifuged at 8000 rpm for 15 min at 4° C. The plasma was separated and stored at −80° C. until further analysis. Other internal organs, including the heart, adipose tissues, liver, kidney, muscle, intestine (duodenum, ileum, jejunum), pancreas, colon and stomach were immediately removed and then snap frozen in liquid nitrogen and stored at −80° C.; the liver was also fixed in 10% formaldehyde for histopathological examination. Immunohistochemical examination. […]

HepG2 cells = assay: MTT assay of liver cancer cell viability; type: cell-based; details: HepG2, 10 μM, two days, FIG. 4
Protocol: HepG2 cells were seeded into a 96 well plate at 20,000 cells per well as hexaplicated. Next day, treatment of the cells with 10 μM drugs (BX-912 and JNK-IN-5A) was started. The treatment lasted for two days. Cell viability was measured using MTT assay. Cells were incubated with 5 mg/ml MTT 3-4 5-DIMETHYLTHIAZ ([…] Thermo fisher) in PBS for 2 h. Microplate reader measured cell viability O.D at 570 nm.

Sprague Dawley male rats [2] = assay: In vivo biosafety study: micronucleus frequencies (MNPCEs) in blood; design: species or system rat; details: 30 mg/kg oral, 7 days, CHOW, p>0.05
Protocol: as §1, §2
To evaluate the potential toxicity of BX-912 and JNK-IN-5A in animals, three groups of 12-week-old rats (n=5) were raised. The first group was fed with CHOW (Ctrl) for seven days. The second group was fed with CHOW plus BX-912 (30 mg/kg) for seven days. […]

Sprague Dawley male rats [3] = assay: In vivo biosafety study: histopathological examination of major organs; design: species or system rat; details: 30 mg/kg oral, 7 days, CHOW
Protocol: as §1, §2
Histopathological examination. The liver tissues were fixed in 10% buffered formaldehyde solution. After fixation, the tissues were passed through graded alcohol and xylene series and embedded in paraffin blocks. 5 micrometer thick sections were taken serially from the paraffin blocks. Histopathological changes were evaluated by performing hematoxylin eosin staining on the sections taken. Sections were evaluated according to histopathological findings as none (−), mild (+), moderate (++) and severe (+++).
To evaluate the potential toxicity of BX-912 and JNK-IN-5A in animals, three groups of 12-week-old rats (n=5) were raised. The first group was fed with CHOW (Ctrl) for seven days. The second group was fed with CHOW plus BX-912 (30 mg/kg) for seven days. The third group was fed with CHOW plus JNK-IN-5A (30 mg/kg) for seven days. After the seven days, all rats were sacrificed, and tissue samples from major organs and blood samples were collected for biosafety evaluation.

| Compound | hepatic Pklr expression in vivo (Pklr) | 8-OH-dG expression in liver tissues (IHC) (Sprague Dawley male rats [1]) | 8-OH-dG expression in hepatocytes in liver tissues (HSD-fed rats) | viability of liver cancer cells in the MTT assay (HepG2 cells) | frequencies of MNPCEs compared to Ctrl animals (Sprague Dawley male rats [2]) | histological structure of kidney, small intestine, large intestine, stomach, heart, pancreas, muscle tissues and liver (Sprague Dawley male rats [3]) | side effects on the rats (overall conclusion) (Sprague Dawley male rats [3]) |
| --- | --- | --- | --- | --- | --- | --- | --- |
| O=C(Nc1cccc(Nc2ncc(Br)c(NCCc3cnc[nH]3)n2)c1)N1CCCC1 [BX-912, N-[3-[[5-bromo-4-[[2-(1H-imidazol-5-yl)ethyl]amino]-2-pyrimidinyl]amino]phenyl]-1-pyrrolidinecarboxamide] | significantly decreased | negative | significantly decreased | significantly reduced | not statistically different | normal histological structures | no side effects |
| N#Cc1c(NC(=O)c2cccc3ccccc23)sc2c1CCCC2 [JNK-IN-5A, N-(3-cyano-4,5,6,7-tetrahydrobenzo [b]thien-2-yl)-1-naphthalenecarboxamide] | significantly decreased | negative | significantly decreased | significantly reduced | not statistically different | normal histological structures | no side effects |
